Laboratory results published in PubChem BioAssay AID248 (DTP/NCI, 2004).
Where “and” joins values, the source holds several entries; their conditions need not be identical. Identical values can stand only once. Toxic doses and inconclusive results are not listed. No stated cut-off is given here; in the data, active means T/C of 150% or more; inactive means T/C below 125%.

Tested on: L1210 leukemia ip in BDF1 mice, survival T/C
Assay: NCI In Vivo Anticancer Drug Screen. Data for tumor model L1210 Leukemia (intraperitoneal) in B6D2F1 (BDF1) mice
Settings: endpoint: mean survival time, higher = longer survival
Outline: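 In this screen, tumor-bearing mice given compound are compared to those given vehicle, and their survival values are reported as a treated-to-control quotient.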

[1] = dose: 100.0 mg/kg/injection, schedule: Q04DX003 (ip), vehicle: saline
[2] = dose: 200.0 mg/kg/injection, schedule: Q04DX003 (ip), vehicle: saline
[3] = dose: 400.0 mg/kg/injection, schedule: Q04DX003 (ip), vehicle: saline
[4] = dose: 50.0 mg/kg/injection, schedule: Q01DX001 (ip), vehicle: saline
[5] = dose: 50.0 mg/kg/injection, schedule: Q04DX003 (ip), vehicle: saline
[6] = dose: 100.0 mg/kg/injection, schedule: Q01DX001 (ip), vehicle: saline
[7] = dose: 100.0 mg/kg/injection, schedule: Q01DX001 (ip), vehicle: saline with Tween-80
[8] = dose: 200.0 mg/kg/injection, schedule: Q01DX001 (ip), vehicle: saline with Tween-80
[9] = dose: 400.0 mg/kg/injection, schedule: Q01DX001 (ip), vehicle: saline with Tween-80
[10] = dose: 400.0 mg/kg/injection, schedule: Q01DX001 (ip), vehicle: saline
[11] = dose: 100.0 mg/kg/injection, schedule: Q01DX009 (ip), vehicle: Klucel (hydroxypropylcellulose) (HPC)
[12] = dose: 100.0 mg/kg/injection, schedule: Q04DX003 (ip), vehicle: saline with Tween-80
[13] = dose: 200.0 mg/kg/injection, schedule: Q04DX003 (ip), vehicle: saline with Tween-80
[14] = dose: 400.0 mg/kg/injection, schedule: Q04DX003 (ip), vehicle: saline with Tween-80
[15] = dose: 200.0 mg/kg/injection, schedule: Q01DX001 (ip), vehicle: saline
[16] = dose: 100.0 mg/kg/injection, schedule: Q01DX009 (ip), vehicle: saline with Tween-80
[17] = dose: 200.0 mg/kg/injection, schedule: Q01DX009 (ip), vehicle: saline with Tween-80
[18] = dose: 400.0 mg/kg/injection, schedule: Q01DX009 (ip), vehicle: saline with Tween-80
[19] = dose: 100.0 mg/kg/injection, schedule: Q04DX002 (ip), vehicle: Klucel (hydroxypropylcellulose) (HPC)
[20] = dose: 200.0 mg/kg/injection, schedule: Q04DX002 (ip), vehicle: Klucel (hydroxypropylcellulose) (HPC)
[21] = dose: 400.0 mg/kg/injection, schedule: Q04DX002 (ip), vehicle: Klucel (hydroxypropylcellulose) (HPC)
[22] = dose: 75.0 mg/kg/injection, schedule: Q01DX001 (ip), vehicle: saline
[23] = dose: 75.0 mg/kg/injection, schedule: Q04DX003 (ip), vehicle: saline

Measured: T/C

COc1c(O)c2c(c3cc(C(=O)N4CCc5c4c(O)c(OC)c4[nH]c(C(=O)N6CC7CC78C6=CC(=O)c6[nH]cc(C)c68)cc54)[nH]c13)CCN2C(N)=O (stereo unspecified)
inactive: dose: 6.25 micrograms/kg/injection, schedule: Q01DX009 (ip), vehicle: DMSO 124 % of control | dose: 12.5 micrograms/kg/injection, schedule: Q01DX009 (ip), vehicle: DMSO 111 % of control | dose: 100.0 micrograms/kg/injection, schedule: Q01DX009 (ip), vehicle: DMSO 96 % of control

CSCC(C)O (stereo unspecified)
inactive: [1] 109 % of control | [2] 115 % of control | [3] 109 % of control

C[CH2][Ge]1([CH2]C)[CH2]CC2(CCN(CCCN(C)C)C2)C[CH2]1
inactive: dose: 4.0 mg/kg/injection, schedule: Q01DX009 (ip), vehicle: saline 95 % of control | dose: 8.0 mg/kg/injection, schedule: Q01DX009 (ip), vehicle: saline 104 % of control | dose: 16.0 mg/kg/injection, schedule: Q01DX009 (ip), vehicle: saline 102 % of control | dose: 25.0 mg/kg/injection, schedule: Q01DX001 (ip), vehicle: saline 92 % of control | dose: 25.0 mg/kg/injection, schedule: Q01DX009 (ip), vehicle: saline 104 % of control and 107 % of control | dose: 25.0 mg/kg/injection, schedule: Q04DX002 (ip), vehicle: saline 106 % of control and 111 % of control | dose: 25.0 mg/kg/injection, schedule: Q04DX003 (ip), vehicle: saline 95 % of control | dose: 32.0 mg/kg/injection, schedule: Q01DX009 (ip), vehicle: saline 104 % of control | [4] 96 % of control | dose: 50.0 mg/kg/injection, schedule: Q01DX009 (ip), vehicle: saline 98 % of control and 104 % of control | dose: 50.0 mg/kg/injection, schedule: Q04DX002 (ip), vehicle: saline 98 % of control and 109 % of control | [5] 91 % of control | dose: 64.0 mg/kg/injection, schedule: Q01DX009 (ip), vehicle: saline 104 % of control | [6] 110 % of control | dose: 100.0 mg/kg/injection, schedule: Q01DX009 (ip), vehicle: saline 88 % of control and 91 % of control and 92 % of control | [1] 95 % of control

Cc1cc(-c2ccccc2)c2c(C#N)cn(-c3cccc(Cl)c3)c2n1
inactive: [7] 92 % of control | [6] 87 % of control | [8] 106 % of control | [9] 92 % of control | [10] 102 % of control

Cc1nc(-c2ccccc2)c(-c2ccccc2)[nH]1
inactive: dose: 50.0 mg/kg/injection, schedule: Q01DX009 (ip), vehicle: Klucel (hydroxypropylcellulose) (HPC) 99 % of control | dose: 66.0 mg/kg/injection, schedule: Q01DX009 (ip), vehicle: Klucel (hydroxypropylcellulose) (HPC) 113 % of control | [11] 111 % of control | dose: 100.0 mg/kg/injection, schedule: Q04DX003 (ip), vehicle: Klucel (hydroxypropylcellulose) (HPC) 101 % of control | dose: 150.0 mg/kg/injection, schedule: Q01DX009 (ip), vehicle: Klucel (hydroxypropylcellulose) (HPC) 92 % of control | dose: 200.0 mg/kg/injection, schedule: Q04DX003 (ip), vehicle: Klucel (hydroxypropylcellulose) (HPC) 101 % of control

CCCCCCCCP(=O)(CCCCCCCC)C(O)C(Cl)(Cl)Cl (stereo unspecified)
inactive: [12] 91 % of control | [13] 96 % of control | [14] 92 % of control

O=S(=O)(Cc1ccc(Br)cc1)Cc1ccc(Br)cc1
inactive: [4] 102 % of control | [6] 90 % of control | [15] 88 % of control | [10] 90 % of control

Nc1cccc(CCCCc2ccccc2)c1
inactive: [7] 102 % of control | [8] 100 % of control

COc1ccc(C2(C)C(C#N)C(=O)NC(=O)C2C#N)cc1 (stereo unspecified)
inactive: [6] 98 % of control | [15] 122 % of control | [10] 104 % of control

C=CCc1cc(C)cc([N+](=O)[O-])c1OBr
inactive: [7] 89 % of control | [16] 97 % of control | [8] 88 % of control | [17] 98 % of control | [9] 93 % of control | [18] 93 % of control

N#C/C([SH2+])=C(/[SH2+])C#N.N#C/C([SH2+])=C(/[SH2+])C#N.N#C/C([SH2+])=C(/[SH2+])C#N.N#C/C([SH2+])=C(/[SH2+])C#N.[Co+3].[Co+3].c1ccc([P+](c2ccccc2)(c2ccccc2)c2ccccc2)cc1
inactive: [5] 105 % of control | [6] 105 % of control | [1] 97 % of control | [15] 109 % of control | [2] 108 % of control

CCOc1ccc(/C=C2\N=C(c3cc(OC)c(OC)c(OC)c3)OC2=O)cc1
inactive: [16] 102 % of control | [19] 96 % of control | [17] 123 % of control | [20] 86 % of control | [18] 108 % of control | [21] 96 % of control

CSC(=N)N(C)Cc1ccccc1
inactive: dose: 9.37 mg/kg/injection, schedule: Q01DX009 (ip), vehicle: saline 103 % of control | dose: 18.75 mg/kg/injection, schedule: Q01DX009 (ip), vehicle: saline 111 % of control | dose: 18.75 mg/kg/injection, schedule: Q04DX003 (ip), vehicle: saline 102 % of control | dose: 37.5 mg/kg/injection, schedule: Q01DX009 (ip), vehicle: saline 108 % of control | dose: 37.5 mg/kg/injection, schedule: Q04DX003 (ip), vehicle: saline 96 % of control | [22] 102 % of control | [23] 88 % of control

CC(C(N)=O)N1C(=O)C2C3CCC(O3)C2C1=O (stereo unspecified)
inactive: [1] 97 % of control | [2] 97 % of control | [3] 97 % of control

Cc1c(C#N)oc2cccc(O)c12
inactive: [11] 100 % of control | [19] 109 % of control | dose: 200.0 mg/kg/injection, schedule: Q01DX009 (ip), vehicle: Klucel (hydroxypropylcellulose) (HPC) 100 % of control | [20] 109 % of control | dose: 400.0 mg/kg/injection, schedule: Q01DX009 (ip), vehicle: Klucel (hydroxypropylcellulose) (HPC) 96 % of control | [21] 102 % of control

O=[N+]([O-])c1cccc(OCCOc2ccc(S(=O)(=O)F)cc2)c1
inactive: [12] 106 % of control | [13] 88 % of control | [14] 93 % of control

CS(=O)(=O)c1nnc(-c2ccc(Cl)c(Cl)c2)s1
inactive: [22] 101 % of control | [23] 110 % of control | dose: 150.0 mg/kg/injection, schedule: Q01DX001 (ip), vehicle: saline 100 % of control | dose: 150.0 mg/kg/injection, schedule: Q04DX003 (ip), vehicle: saline 95 % of control | dose: 300.0 mg/kg/injection, schedule: Q01DX001 (ip), vehicle: saline 110 % of control
